Here are results for five compounds from patent US20050054018A1, “Activated checkpoint therapy and methods of use thereof” (priority 2002, published 2005).

The test system of one data set is SW480. As to the kind of experiment: Cancer cell line IC50, SW480. Particulars: Homo sapiens, read-out: Cancer Cell Lines, IC50, Colon SW480. Format: cell-based.
Another data set relates to DLD1. Briefly: Cancer cell line IC50, DLD1. Format: cell-based. Conditions: Homo sapiens, DLD-1; read-out: Cancer Cell Lines, IC50, Colon DLD1.
Another data set relates to MCF-7. As to the kind of experiment: Cancer cell line IC50, MCF-7. It is filed as cell-based. Particulars: Homo sapiens, MCF7; read-out: Cancer Cell Lines, IC50, Breast MCF-7. The method, then: (§1) In this experiment, exponentially growing cells were seeded at 1000 cells/well and allowed to attach for 48 h. […] After 10-20 days, cells were fixed and stained with modified Wright-Giemsa stain.

Data set [1] concerns Normal Cell Lines vs Cancer Cell Lines. As to the kind of experiment: Fold selectivity, normal vs cancer cell lines. Format: cell-based.
For another data set, the system named is NCM460. As to the kind of experiment: Normal cell line, NCM460. Conditions: Homo sapiens, read-out: Normal Cell Lines, Colon NCM460. It is filed as cell-based.
The test system of a further data set is PaCa-2. As to the kind of experiment: Cancer cell line IC50, PaCa-2. Conditions: Homo sapiens, read-out: Cancer Cell Lines, IC50, Pancreas PaCa-2. Format: cell-based.
Another data set relates to HT-29. Briefly: Cancer cell line IC50, HT-29. Conditions: Homo sapiens, read-out: Cancer Cell Lines, IC50, Colon HT-29. It is filed as cell-based.
The subject of another data set is MCF10A. Briefly: Normal cell line, MCF10A. It is filed as cell-based. Particulars: Homo sapiens, MCF-10A; read-out: Normal Cell Lines, Breast MCF10A. The method, then: as §1
In the next data set the test system is A549. Briefly: Cancer cell line IC50, A549. Conditions: Homo sapiens, read-out: Cancer Cell Lines, IC50, Lung A549. It is filed as cell-based.
A further data set deals with human cancer cells. Briefly: Combination with Taxol, cancer cell survival in vitro. Format: cell-based. Particulars: in the presence of β-Lapachone.
Data set [2] concerns normal human colon cells (NCM460). As to the kind of experiment: Flow cytometry sub-G1 apoptosis, NCM460. It is filed as cell-based. Conditions: NCM460, 24 h. On the procedure:
(§2) Cells were treated for 24 h, then were subjected to flow cytometric analysis after staining with propidium iodide.
(In general: A flow cytometer gives signals particle by particle.)

The next data set concerns PARP. As to the kind of experiment: Western blot, PARP cleavage. Format: cell-based, human. Particulars: after 4 hours of exposure.
Data set [3] concerns human colon carcinoma cells (DLD1). Briefly: Flow cytometry sub-G1 apoptosis, DLD1. Conditions: DLD1, 2-4 μM, 24 h. It is filed as cell-based. The method, then: as §2
The test system of data set [4] is E2F. As to the kind of experiment: Gel mobility shift assay, DLD1 nuclear proteins. Format: cell-based, human. Conditions: DLD1, 4 μM. From the text: (§3) The arrow denotes the location of the putative E2F protein-DNA complex.
Data set [5] relates to human prostate cancer cells (PC-3). As to the kind of experiment: Colony survival, combination with GL331, PC-3. It is filed as cell-based. The text has this: (§4) The number of colonies in the control well (solvent-treated) was taken as 100% survival.
For data set [6], the system named is normal human Peripheral Blood Mononuclear Cells (PBMC). Briefly: MTT assay, PBMC. It is filed as cell-based. Particulars: 0.5, 2, 4, and 8 μM, 24 h; fresh or proliferating PBMC. On the procedure:
Proliferating PBMC were generated by 72 h incubation with phytohemagglutinin (PHA) at 2 μg/mL.

For data set [7], the system named is human colon carcinoma cells (SW480). Briefly: Flow cytometry sub-G1 apoptosis, SW480. Format: cell-based. Particulars: SW480, 2-4 μM, 24 h. The method, then:
as §2

Data set [8] concerns human pancreatic cancer cells (Paca-2). As to the kind of experiment: Colony survival, combination with gemcitabine, Paca-2. It is filed as cell-based. Particulars: gemcitabine 5 μg/ml day 1 followed by β-lapachone 2 μM day 2.
Excerpt: as §4

In data set [9] the test system is human breast cancer cells (MCF-7). Briefly: Colony formation assay, MCF-7. Particulars: MCF-7, 4 h treatment, 2-4 μM and higher, 10-20 days. Format: cell-based. The method, then:
as §1

Data set [10] concerns human multiple myeloma (MM) cells. Briefly: MTT assay, multiple myeloma cells. Format: cell-based. Particulars: 4 μM, 24 h, all seven MM cell lines.
The test system of data set [11] is E2F. Briefly: Gel mobility shift assay, NCM460 nuclear proteins. Particulars: NCM460, 4 μM, up to 2 hours. It is filed as cell-based, human.
Excerpt: as §3

In data set [12] the test system is human colon cancer cell line DLD1. As to the kind of experiment: Colony formation and MTT assay, DLD1. It is filed as cell-based. Particulars: DLD1, 4 hour exposure, 4-5 μM. On the procedure: DLD1 cells were seeded into 6-well, 96-well plates and allowed to attach overnight. […] Control cells were treated with DMSO equivalent to the highest dose of β-Lapachone used. For the colony formation assay, colonies were allowed to grow for 14 days; MT assay cells continued in culture for an additional 2 days.
(In general: Tetrazolium dyes change colour on reduction, which living cells bring about.)

The test system of the next data set is cytochrome c. As to the kind of experiment: Western blot, cytochrome c release in DLD1. Format: cell-based, human. (A western blot detects proteins with antibodies after separation by electrophoresis.)
The test system of data set [13] is normal human breast epithelial cells (MCF-10A). As to the kind of experiment: Colony formation assay, MCF-10A. Format: cell-based. Particulars: 4 h treatment, 10-20 days. On the procedure:
as §1

Turning to `CC(C)=CCC1CC2=C(OC1(C)C)c1ccccc1C(=O)C2=O` (stereo not shown) [3,4-dihydro-2,2-dimethyl-3-(3-methyl-2-butenyl)-2H-naphtho[1,2-b]pyran-5,6-dione], the IC50 in the data set with SW480 stood at 1.8 µM; in the data set with DLD1 it was 1.3 µM; in the data set with MCF-7 it was 1 µM; in the data set on NCM460, 10 µM. Moreover, the “Fold Selectivity” value in data set [1] is “˜7”.
`CC1(C)CCC2=C(S1)c1ccccc1C(=O)C2=O` [3,4-dihydro-2,2-dimethyl-2H-naphtho[1,2-b]thiopyran-5,6-dione]: the IC50 came out at 1.5 µM in the data set with SW480; 2 µM in the data set with DLD1; 1.5 µM in the data set with PaCa-2; 1.8 µM in the data set on HT-29; 1 µM with MCF-7; 7.5 µM in the data set on NCM460. Moreover, the figures for the IC50 in the data set with MCF10A and in the data set with A549 were 6.7 µM and 1.7 µM, respectively. The “Fold Selectivity” value in data set [1] is “˜4.5”.
On to `CC(=O)O[C@H]1C(=O)[C@@]2(C)[C@H]([C@H](OC(=O)c3ccccc3)[C@]3(O)C[C@H](OC(=O)[C@H](O)[C@@H](NC(=O)c4ccccc4)c4ccccc4)C(C)=C1C3(C)C)[C@]1(OC(C)=O)CO[C@@H]1C[C@@H]2O` [Taxol®, paclitaxel], for which, in the data set with human cancer cells, the “reduction of effective Taxol concentration” value is “at least 10 fold”.
Take `CC1(C)CCSC2=C1C(=O)C(=O)c1ccccc12` [3,4-dihydro-4,4-dimethyl-2H-naphtho[1,2-b]thiopyran-5,6-dione]: the IC50 in the data set on PaCa-2 is 1.2 µM; with HT-29, 1.6 µM; with NCM460 it was 6 µM; with MCF10A, 6.3 µM; with A549 it was 1.6 µM. The “Fold Selectivity” value in data set [1] is recorded as “˜4”.
With `CC1(C)CCC2=C(O1)c1ccccc1C(=O)C2=O` [β-lapachone, 3,4-dihydro-2,2-dimethyl-2H-naphtho[1,2-b]pyran-5,6-dione], the IC50 was found to be 3.3 µM with SW480; 3.6 µM with DLD1; 1.6 µM in the data set on PaCa-2; 2.1 µM in the data set on HT-29; 1 µM in the data set with MCF-7; 8.1 µM in the data set with NCM460. Besides, the IC50 in the data set with MCF10A was determined as 5.8 µM. Further, the “apoptosis (sub-G1 fraction)” value is on record as “no apoptosis” in data set [2], “induce apoptosis” in [3] and “induce apoptosis” in [7]. Moreover, in the data set with PARP, the PARP cleavage result is listed as “cleavage of PARP”. For the same compound, the entries for the “nuclear E2F protein levels vs. starting levels” value with E2F [4] (0.5 hours) and in the data set with E2F [4] (1 hour) were “increased” and “markedly elevated”, respectively. In addition, the “colony survival, combination with GL331” value in [5] (β-lapachone 2 μM and GL331 2 μM simultaneously, 4 h) is reported as “complete eradication of colony forming units”; in [5] (β-lapachone 2 μM day 1 followed by GL331 2 μM day 2) it was “complete eradication of colony forming units”. In addition, the “cytotoxicity to PBMC growth (MTT)” value in [6] is recorded as “No cytotoxicity”. Also, the “colony survival, combination with gemcitabine” value in [8] was “complete eradication of colony forming units”. Also, the colonies result in [9] is given as “essentially complete elimination of colonies”. In addition, in data set [10], the “cell viability in cultures (MTT)” value is “significantly decreased”. Also, the “level of E2F expression” value in the data set with E2F [11] is on record as “essentially unchanged”. The “viable cells (colony formation and MTT assay)” value in data set [12] is recorded as “eliminates viable cells”. Also, in the data set on cytochrome c (DLD1), the “time of peak cytochrome c release” value was found to be 2 h. Besides, the “exposure time to cytochrome c release” value in the data set on cytochrome c (DLD1, earliest release) turned out to be 1 h. Moreover, the number of colonies entry in data set [13] is recorded as “no reduction in the number of colonies”. The “size of the colonies” value in data set [13] was “smaller”.
